Data published in ChEMBL document CHEMBL3621041, “Optimization of a Novel Binding Motif to (E)-3-(3,5-Difluoro-4-((1R,3R)-2-(2-fluoro-2-methylpropyl)-3-methyl-2,3,4,9-tetrahydro-1H-pyrido[3,4-b]indol-1-yl)phenyl)acrylic Acid (AZD9496), a Potent and Orally Bioavailable Selective Estrogen Receptor Downregulator and Antagonist” (J Med Chem, 2015).
Converted amounts (≈) assume the structure as drawn. The source made the active and inactive calls. The rule behind the calls is not given here.

How the values were obtained:
MCF7 = test: cells; conditions: Homo sapiens, MCF7, read-out: pIC50 (converted)
Description: Antiproliferative activity against human MCF7 cells

Progesterone receptor = target: T1, Progesterone receptor (Homo sapiens, UniProt P06401); test: Agonist activity at progesterone receptor in human MCF7 cells; type: cell-based
T1 sequence (P06401 whole entry): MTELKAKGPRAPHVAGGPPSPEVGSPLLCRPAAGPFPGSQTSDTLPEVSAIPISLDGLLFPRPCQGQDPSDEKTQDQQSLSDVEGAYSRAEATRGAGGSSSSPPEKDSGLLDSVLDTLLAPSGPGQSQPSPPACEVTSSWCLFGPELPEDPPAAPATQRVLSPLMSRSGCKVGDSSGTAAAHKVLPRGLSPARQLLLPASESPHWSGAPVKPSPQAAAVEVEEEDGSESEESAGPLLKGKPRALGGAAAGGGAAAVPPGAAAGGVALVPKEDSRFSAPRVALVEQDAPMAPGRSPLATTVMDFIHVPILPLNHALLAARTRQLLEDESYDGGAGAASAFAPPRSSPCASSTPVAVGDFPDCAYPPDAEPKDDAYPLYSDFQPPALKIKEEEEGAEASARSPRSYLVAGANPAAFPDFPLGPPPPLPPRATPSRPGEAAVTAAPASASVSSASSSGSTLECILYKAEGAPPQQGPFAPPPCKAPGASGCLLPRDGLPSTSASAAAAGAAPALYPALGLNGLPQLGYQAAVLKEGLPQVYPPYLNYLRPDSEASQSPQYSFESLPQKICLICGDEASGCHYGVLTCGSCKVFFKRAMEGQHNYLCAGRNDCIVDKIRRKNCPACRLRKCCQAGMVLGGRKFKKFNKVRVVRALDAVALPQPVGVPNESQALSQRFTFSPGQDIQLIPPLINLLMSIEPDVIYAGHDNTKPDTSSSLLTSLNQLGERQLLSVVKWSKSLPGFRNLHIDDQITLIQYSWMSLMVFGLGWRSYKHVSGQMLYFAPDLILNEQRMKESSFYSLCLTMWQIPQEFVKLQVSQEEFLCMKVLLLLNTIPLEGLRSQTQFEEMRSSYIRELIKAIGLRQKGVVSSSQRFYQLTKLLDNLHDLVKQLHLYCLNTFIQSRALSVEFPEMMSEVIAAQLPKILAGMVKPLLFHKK

Estrogen receptor [1] = target: T2, Estrogen receptor (Homo sapiens, UniProt P03372)
T2 sequence (P03372 whole entry): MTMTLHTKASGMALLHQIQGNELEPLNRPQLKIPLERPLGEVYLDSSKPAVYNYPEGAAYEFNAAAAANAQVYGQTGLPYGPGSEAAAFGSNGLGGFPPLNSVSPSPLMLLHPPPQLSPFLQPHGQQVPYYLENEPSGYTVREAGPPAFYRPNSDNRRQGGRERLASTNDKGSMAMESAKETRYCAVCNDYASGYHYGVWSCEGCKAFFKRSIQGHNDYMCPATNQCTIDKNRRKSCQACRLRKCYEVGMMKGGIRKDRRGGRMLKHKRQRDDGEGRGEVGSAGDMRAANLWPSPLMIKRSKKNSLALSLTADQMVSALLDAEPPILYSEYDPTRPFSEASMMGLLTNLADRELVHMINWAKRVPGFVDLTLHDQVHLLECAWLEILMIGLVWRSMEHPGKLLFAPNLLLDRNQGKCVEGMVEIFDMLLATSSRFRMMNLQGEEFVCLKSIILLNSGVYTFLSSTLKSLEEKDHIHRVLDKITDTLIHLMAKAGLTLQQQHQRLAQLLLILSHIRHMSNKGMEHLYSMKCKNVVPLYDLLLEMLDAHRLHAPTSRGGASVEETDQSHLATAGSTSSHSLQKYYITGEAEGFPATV
Description: Antagonist activity at ERalpha receptor in human MCF7 cells

Estrogen receptor [2] = target: T2, Estrogen receptor; remark: listed apart in the source
Description: Binding affinity to ERalpha receptor (unknown origin)

[3] = target: T3, Progesterone receptor (Homo sapiens) (UniProt P06401); test: Agonist activity at progesterone receptor (unknown origin) at 100 uM
T3 sequence (whole entry): T1 sequence (P06401 whole entry)

[4] = Intrinsic clearance in rat cryopreserved hepatocytes assessed per 10^6 cells; type: ADME, cell-based, Hepatocyte; conditions: read-out: CLH
[5] = Lipophilicity, log D of the compound at pH 7.4; type: physicochemical; conditions: buffer
[6] = Clearance in Han Wistar rat at 2 umol/kg, iv and 5 umol/kg, po; type: ADME, organism-based; conditions: in vivo
[7] = Oral bioavailability in Han Wistar rat at 5 umol/kg; type: ADME, organism-based; conditions: in vivo
[8] = Intrinsic clearance in human cryopreserved hepatocytes assessed per 10^6 cells; type: ADME, cell-based, Hepatocyte; conditions: read-out: CLH
[9] = Fraction unbound in human 10% plasma by equilibrium dialysis; type: ADME, cell-free
[10] = Fraction unbound in Han Wistar rat 10% plasma by equilibrium dialysis; type: ADME, cell-free
[11] = Thermodynamic solubility of the compound in 0.1 M phosphate buffer at pH 7.4 after 24 hrs; type: physicochemical; conditions: read-out: Therm_solubility
[12] = Volume of distribution at steady state in Han Wistar rat at 2 umol/kg, iv and 5 umol/kg, po; type: ADME, organism-based; conditions: in vivo, read-out: Vdss

## C[C@@H]1Cc2c([nH]c3ccccc23)[C@@H](c2ccc(/C=C/C(=O)O)cc2)N1CCO
MCF7
  IC50: 813 nM
Progesterone receptor
  IC50: > 100000 nM
Estrogen receptor [1]
  IC50: 1320 nM
Estrogen receptor [2]
  IC50: 692 nM

## C[C@@H]1Cc2c([nH]c3ccccc23)[C@@H](c2ccc(/C=C/C(=O)O)cc2)N1CC(C)(C)F
MCF7
  IC50: 0.324 nM
Progesterone receptor
  IC50: > 3160 nM

## C[C@@H]1Cc2c([nH]c3ccccc23)[C@@H](c2ccc(Cl)cc2)N1CCC(=O)O
MCF7
  IC50: > 25100 nM
[3]
  percent agonist activity: 15%
Progesterone receptor
  IC50: > 100000 nM
Estrogen receptor [1]
  IC50: 776 nM
Estrogen receptor [2]
  IC50: 1780 nM

## CC(C)CN1[C@H](c2c(F)cc(/C=C/C(=O)O)cc2F)c2[nH]c3ccccc3c2C[C@H]1C
MCF7
  IC50: 0.229 nM
Progesterone receptor
  IC50: > 3160 nM
Estrogen receptor [1]
  IC50: 0.417 nM
Estrogen receptor [2]
  IC50: 0.708 nM

## CC/C(=C(\c1ccccc1)c1ccc(/C=C/C(=O)O)cc1)c1ccccc1
MCF7
  IC50: 295 nM
[3]
  percent agonist activity: inactive
Progesterone receptor
  IC50: > 100000 nM

## C[C@@H](CO)CN1[C@H](c2ccc(/C=C/C(=O)O)cc2)c2[nH]c3ccccc3c2C[C@H]1C
Progesterone receptor
  IC50: > 100000 nM
Estrogen receptor [1]
  IC50: 45.7 nM
Estrogen receptor [2]
  IC50: 97.7 nM

## C[C@@H]1Cc2c([nH]c3ccccc23)[C@@H](c2ccc(Cl)cc2)N1C[C@H](C)C(=O)O
[4]
  hepatocyte CLint: 82 µL/min/1e6 cells
MCF7
  IC50: > 31600 nM
[5]
  logD: 2.8
[6]
  clearance: 14 mL/min/kg
[7]
  bioavailability: 42%
Progesterone receptor
  IC50: 12.9 nM
Estrogen receptor [1]
  IC50: 30.2 nM
[8]
  hepatocyte CLint: 23 µL/min/1e6 cells
[9]
  fraction unbound: 0.015
[10]
  fraction unbound: 0.032
[11]
  solubility thermodynamic at 24 h: 1440 µM (≈ 551 µg/mL)
[12]
  Vd: 0.34 L/kg
Estrogen receptor [2]
  IC50: 70.8 nM

## CC/C(=C(\c1ccccc1)c1ccc(OCCN(C)C)cc1)c1ccccc1 [TAMOXIFEN]
MCF7
  IC50: 57.5 nM
